{"source": "a melting point compilation (Tetko et al.; mined from patent text by program, amines drawn as free bases though some values may be those of a salt)", "data": [{"units": {"melting point": "°C"}, "values": [{"smiles": "Clc1cnc2c(Cl)cccc2n1", "melting point": "137 to 138"}, {"smiles": "O=Cc1nccn1Cc1cn(-c2ccc(Cl)c(Cl)c2)cn1", "melting point": "130 to 131"}, {"smiles": "CON=C(C(=O)OC)c1ccccc1COc1ccc(C(C)=NOCc2ccccc2)cc1", "melting point": "104 to 106"}, {"smiles": "COC(=O)C(=NO)c1nc2cccc(OC)c2oc1=O", "melting point": "176 to 178"}, {"smiles": "C=CCCCCCCCCCN1C(=O)c2ccccc2C1=O", "melting point": "25 to 30"}, {"smiles": "O=C(Nc1ccc(-n2nc(C3CC3)cc2C2CC2)c(F)c1)c1c(F)cccc1F", "melting point": "182 to 186"}, {"smiles": "O=C(O)C(O)(c1ccc(F)cc1)c1ccc(F)cc1", "melting point": "133 to 136"}, {"smiles": "CC(C)CCC(=O)NC[C@H](O)[C@H](O)[C@H](CC1CCCCC1)NC(=O)OC(C)(C)C", "melting point": "179 to 183"}, {"smiles": "O=C(CN1CCN(c2cnccn2)CC1)N1CCC(CO)(c2cccc(C(F)(F)F)c2)CC1", "melting point": 223}, {"smiles": "Clc1cc2nc(NC3=NCCN3)[nH]c2cc1Cl", "melting point": "265 to 272"}, {"smiles": "O=C(NC(Cc1ccccc1)C(=O)O)c1cc2cc(Cl)ccc2[nH]1", "note": "(stereo not given)", "melting point": "248 to 255"}, {"smiles": "CN1C(=O)C(NC(=O)Nc2cccc(Br)c2)N=C(c2ccccc2)c2ccccc21", "note": "(stereo not given)", "melting point": "194 to 196"}, {"smiles": "CCCc1nc(C)n2c(=O)[nH]nc2c1Cc1ccc(-c2ccccc2C#N)cc1", "melting point": 196}, {"smiles": "COc1cc2ncc(C#N)c(Nc3ccc4[nH]ccc4c3)c2cc1OC", "melting point": "> 250"}, {"smiles": "O=C(NCCO[N+](=O)[O-])c1ccco1", "melting point": "88 to 89"}, {"smiles": "COC(=O)c1ccc(CSc2nc3ccccc3[nH]2)cc1", "melting point": "229 to 231"}, {"smiles": "COC(=O)C(C)c1ccc2c(=O)c3ccccc3ccc2c1", "note": "(stereo not given)", "melting point": "37 to 39"}, {"smiles": "CCCCNc1c(C(=O)OCC)cnc(O)c1C(C)=O", "melting point": "134 to 136"}, {"smiles": "O=C(C=CC(F)(F)F)Nc1ccc2ncnc(Nc3cccc(Br)c3)c2c1", "melting point": "273 to 278"}, {"smiles": "COc1cc2c3c(n(C)c(=O)c2cc1OC)-c1cc2c(cc1C3=CCCCI)OCO2", "melting point": "173 to 174"}, {"smiles": "O=C(O)c1cc(S(=O)(=O)N(CCc2ccc(Cl)cc2)Cc2ccccc2)ccc1Br", "melting point": "142 to 144"}, {"smiles": "O=C(Nc1cscn1)C(F)(F)F", "melting point": "138 to 139"}, {"smiles": "Cc1nn(-c2c(Cl)cc(C(F)(F)F)cc2Cl)cc1S(C)(=O)=O", "melting point": "168 to 169"}, {"smiles": "CCOc1cnc(-c2ccc(O)cc2)nc1", "melting point": 202}, {"smiles": "CC1(Cc2ccccc2)COc2cc(C(=O)O)ccc21", "note": "(stereo not given)", "melting point": 165}, {"smiles": "O=C(CC[C@H]1CC[C@H](Nc2ncc3ncnc(Nc4ccc(F)c(Cl)c4)c3n2)CC1)N1CCCC1", "melting point": "187 to 192"}, {"smiles": "Cc1c(C(=O)O)oc2cc(SC(=O)N(C)C)ccc12", "melting point": "188 to 190"}, {"smiles": "CN1CCN(c2cc3c(Cl)cccc3c(=O)[nH]2)CC1", "melting point": "230 to 231"}, {"smiles": "CC(C)c1c(Cl)nc2ncnn2c1Cl", "melting point": 119}, {"smiles": "CCC(=O)C(=O)Nc1c(C)c(C)c2c(c1C)C(c1ccc(C(C)C)cc1)CO2", "note": "(stereo not given)", "melting point": "97 to 98"}, {"smiles": "CNC(=O)S(=O)(=O)Nc1sc(CC(C)C)cc1-c1ccc(Cn2c(-c3ccccc3)nc(OC)c2C=O)cc1", "melting point": "102 to 103"}, {"smiles": "NS(=O)(=O)c1ccc(CCNC(=O)CCn2cnc3c(=O)[nH]cnc32)cc1", "melting point": "212 to 216"}, {"smiles": "COc1cc(F)ccc1C(=O)Nc1cc(-c2c(-c3ccc(F)c(C)c3)nc3cccnn23)ccn1", "melting point": "251 to 252"}, {"smiles": "O=c1c(Br)c(OCc2ccccc2)ccn1CCc1cccs1", "melting point": "128 to 130"}, {"smiles": "CN(C)CCCN(c1ccccc1)c1ncccc1NC(=O)c1ccccc1Cl", "melting point": "90 to 92"}, {"smiles": "CC(C)(C)OC(=O)COc1ccc(NC(=O)OCc2ccccc2)cc1", "melting point": "109 to 110"}, {"smiles": "Cn1ncc2c(=O)[nH]cnc21", "melting point": "289 to 290"}, {"smiles": "Cc1c(CCNC(=O)OC(C)(C)C)c2cc(S(=O)(=O)c3ccc(C(F)(F)F)cc3)ccc2n1C", "melting point": "124 to 128"}, {"smiles": "O=Cc1cc(-c2cccc(Cl)c2)c2cc(C(c3ccc(Cl)cc3)c3cccnc3)ccc2n1", "note": "(stereo not given)", "melting point": 168}, {"smiles": "Cc1c(C(O)Cc2ccccc2)cc(I)[nH]c1=O", "note": "(stereo not given)", "melting point": "166 to 167"}, {"smiles": "CS(=O)(=O)c1ccc(C(CC2CCCC2)C(=O)Nc2nccs2)cc1[N+](=O)[O-]", "note": "(stereo not given)", "melting point": "121 to 124"}, {"smiles": "O=C(N[C@H]1CC[C@H](CCN2CCN(c3nccc4c3OCC4)CC2)CC1)c1ccc(F)cc1", "melting point": 236}, {"smiles": "CC(=O)C(=CS(=O)(=O)NC(C)C)c1cccc([N+](=O)[O-])c1", "melting point": "153 to 157"}, {"smiles": "COc1ccc(C(C)=O)c(CC(=O)O)c1", "melting point": "153 to 155"}, {"smiles": "CCCN(Cc1ccc(-c2ccccc2-c2nc(=O)o[nH]2)cc1)c1nn(C)cc1C(=O)O", "melting point": "124 to 126"}, {"smiles": "CCOC(=O)c1cc(NS(=O)(=O)c2cccnc2)ccc1Oc1cncc(Cl)c1", "melting point": "120 to 122"}, {"smiles": "Oc1ccc(-c2nc3ccccc3s2)cc1", "melting point": "108 to 109"}, {"smiles": "CCC(C)n1c2ccccc2c2ccccc21", "note": "(stereo not given)", "melting point": "62 to 63"}, {"smiles": "CC12Cc3cnn(-c4ccc(F)cc4)c3C=C1CCC1OC3(CC=C12)C(=O)NC(=O)NC3=O", "note": "(stereo not given)", "melting point": "235 to 236"}, {"smiles": "N#Cc1ccc(O)c(O)c1O", "melting point": 172}, {"smiles": "CNC(=O)c1cnn2c(C(=O)N3CCNCC3)c(Cc3cccc(F)c3C)c(-c3ccccc3)c2c1", "melting point": "208 to 210"}, {"smiles": "CCOC(=O)c1cn(C2CC2)c2nc(S(=O)(=O)c3ccc(C)cc3)c(F)cc2c1=O", "melting point": "216 to 218"}, {"smiles": "CCOC(=O)c1cc(SC(F)F)c(-c2ccc(Cl)cc2)[nH]1", "melting point": "113 to 117"}, {"smiles": "CCCCCCCCNC(=O)N1CCC(c2cc(Cc3ccc(OC)cc3)nc(N)n2)CC1", "melting point": "104 to 106"}, {"smiles": "NCC(O)COc1cccc(Cl)c1", "note": "(stereo not given)", "melting point": "55 to 58"}, {"smiles": "COc1cc(OC(C)C)cc2oc(C)cc(=S)c12", "melting point": "113 to 114"}, {"smiles": "O=S(=O)(CCCl)c1ccc(Cl)cc1", "melting point": 91}, {"smiles": "COc1cccc(CCNC(=O)N2CCC(Nc3ccc(CCNC[C@H](O)COc4ccc(O)cc4)cc3)CC2)c1", "melting point": "103 to 108"}, {"smiles": "O=C1C[C@]2(c3ccccc3)CCCC[C@H]2C(=O)N1", "note": "(relative stereo)", "melting point": "180 to 182"}, {"smiles": "Cc1ccc(C(=O)NN2CCOCC2)c(Nc2ccc3[nH]ncc3c2)n1", "melting point": "257 to 260"}, {"smiles": "Cc1ccc(C(=O)Nc2ccc(CN3CCCCC3)c(C(F)(F)F)c2)cc1Br", "melting point": "151 to 153"}, {"smiles": "N=c1sc2cc(OC(F)(F)F)ccc2n1CCS(=O)c1ccncc1", "note": "(stereo not given)", "melting point": 194}, {"smiles": "COc1ccc(CN2C(=O)C(CCO)Oc3ccccc32)cc1", "note": "(stereo not given)", "melting point": "80 to 82"}, {"smiles": "CC(C)[C@H](NC(=O)N(C)Cc1nccs1)C(=O)N[C@@H](Cc1ccccc1)C[C@H](O)[C@H](Cc1ccccc1)NC(=O)[C@@H](NC(=O)N(C)Cc1nccs1)C(C)C", "melting point": "195 to 197"}, {"smiles": "O=C(Nc1c[nH]nc1C(=O)NCCOc1ccccc1)c1ccccn1", "melting point": "182 to 183"}, {"smiles": "C=CCc1c(C(=O)N(C)C)cn2cc(C)nc2c1OC(=O)C(C)(C)C", "melting point": "178 to 180"}, {"smiles": "CC(C)C[C@H](NC(=O)[C@@H](S)Cc1ccccc1)C(=O)O", "melting point": "67 to 71"}, {"smiles": "CC1(C)OC(c2ccc(S(N)(=O)=O)cc2)=C(c2ccc3c(c2)OCO3)C1=O", "melting point": "178 to 179"}, {"smiles": "COC(=S)NCc1cn(-c2cc(F)c(N3CCC(=O)CC3)c(F)c2)nn1", "melting point": "175 to 176"}, {"smiles": "CCOc1cc(OCC(=O)OCc2ccccc2)cc2c1C(=O)N(COC(=O)c1c(Cl)cccc1Cl)S2(=O)=O", "melting point": "157 to 158"}]}]}
